{"source": "ChEMBL document CHEMBL4706558", "about": "“Factor XII/XIIa inhibitors: Their discovery, development, and potential indications” (Eur J Med Chem, 2020)", "key": {"Coagulation factor XII [1]": {"molecular_target": "T1, Coagulation factor XII (Homo sapiens, UniProt P00748)", "T1 sequence (P00748 whole entry)": "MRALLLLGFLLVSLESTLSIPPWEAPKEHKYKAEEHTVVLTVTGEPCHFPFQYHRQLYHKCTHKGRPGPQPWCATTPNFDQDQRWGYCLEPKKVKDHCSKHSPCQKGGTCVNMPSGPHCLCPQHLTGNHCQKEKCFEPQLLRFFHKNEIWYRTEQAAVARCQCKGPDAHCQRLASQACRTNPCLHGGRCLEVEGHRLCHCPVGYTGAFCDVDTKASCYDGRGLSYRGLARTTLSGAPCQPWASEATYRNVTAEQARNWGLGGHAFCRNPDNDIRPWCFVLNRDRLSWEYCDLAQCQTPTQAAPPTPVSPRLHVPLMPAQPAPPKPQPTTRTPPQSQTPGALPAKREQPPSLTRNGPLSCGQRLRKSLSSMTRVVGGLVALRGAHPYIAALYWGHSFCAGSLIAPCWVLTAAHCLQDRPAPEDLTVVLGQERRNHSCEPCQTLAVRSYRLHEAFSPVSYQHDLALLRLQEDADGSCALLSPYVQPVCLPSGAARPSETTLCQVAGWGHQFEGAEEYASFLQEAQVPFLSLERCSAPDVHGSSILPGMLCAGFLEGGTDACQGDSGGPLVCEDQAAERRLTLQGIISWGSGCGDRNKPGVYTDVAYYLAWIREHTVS", "assay": "Inhibition of human factor 12a"}, "Coagulation factor XII [2]": {"molecular_target": "T1, Coagulation factor XII", "assay": "Inhibition of human factor 12a using H-D-Pro-Phe-Arg-pNa as substrate by spectrophotometric method"}, "Trypsin [3]": {"molecular_target": "T2, Trypsin (Homo sapiens, UniProt P07477+P07478+P35030)", "assay": "Inhibition of trypsin (unknown origin)", "format": "protein assay"}, "Coagulation factor XII [4]": {"molecular_target": "T1, Coagulation factor XII", "assay": "Inhibition of factor 12a (unknown origin)"}, "[5]": {"assay": "Inhibition of bovine trypsin using BAEE as substrate by Lineweaver-Burk analysis", "parameters": "species or system Bos taurus"}, "Coagulation factor XII [6]": {"molecular_target": "T1, Coagulation factor XII", "assay": "Inhibition of human factor 12a using chromogenic substrate by Lineweaver-Burk analysis"}, "[7]": {"assay": "Inhibition of bovine trypsin using chromogenic substrate by Lineweaver-Burk analysis", "parameters": "species or system Bos taurus"}, "Coagulation factor XII [8]": {"molecular_target": "T1, Coagulation factor XII", "assay": "Non-competitive inhibition of factor 12a (unknown origin) using BQGR as substrate"}, "Trypsin [9]": {"molecular_target": "T2, Trypsin", "assay": "Competitive inhibition of trypsin (unknown origin) using BFSR as substrate", "format": "protein assay"}}, "data": [{"smiles": "N=C(N)Nc1ccc(OC(=O)c2cc3cc(CCl)ccc3oc2=O)cc1", "values": [{"measurement": "IC50", "setting": "Coagulation factor XII [1]", "value": 6000, "unit": "nM"}]}, {"smiles": "N=C(N)NCCC[C@H](NC(=O)[C@@H]1CCCN1C(=O)[C@H](N)Cc1ccccc1)C(=O)CCl", "values": [{"measurement": "Ki", "setting": "Coagulation factor XII [2]", "value": 230, "unit": "nM"}]}, {"smiles": "N=C(N)NCCCCCC(=O)Oc1ccccc1", "values": [{"measurement": "Ki", "setting": "Trypsin [3]", "value": 800, "unit": "nM"}]}, {"smiles": "Cc1ccc2oc(=O)c(C(=O)Nc3ccc(N)cc3)cc2c1", "values": [{"measurement": "IC50", "setting": "Coagulation factor XII [4]", "value": 14000, "unit": "nM"}]}, {"smiles": "CCCCCCOC(=O)CCCCCNC(=N)N", "values": [{"measurement": "Ki", "setting": "Trypsin [3]", "value": 20000, "unit": "nM"}]}, {"smiles": "N=C(N)Nc1ccc(NC(=O)c2cc3cc(Cl)cc(Br)c3oc2=O)cc1", "values": [{"measurement": "IC50", "setting": "Coagulation factor XII [1]", "value": 102000, "unit": "nM"}]}, {"smiles": "CCCCCCOC(=O)CCCCCN", "values": [{"measurement": "Ki", "setting": "[5]", "value": 58700, "unit": "nM"}]}, {"smiles": "Cc1ccc2oc(=O)c(C(=O)Nc3ccc(NC(=N)N)cc3)cc2c1", "values": [{"measurement": "IC50", "setting": "Coagulation factor XII [1]", "value": 150000, "unit": "nM"}]}, {"smiles": "CCOC(=O)c1ccc(OC(=O)CCCCCNC(=N)N)cc1", "note": "[GABEXATE]", "values": [{"measurement": "Ki", "setting": "Coagulation factor XII [6]", "value": 2920, "unit": "nM"}, {"measurement": "Ki", "setting": "[7]", "value": 72, "unit": "nM"}]}, {"smiles": "N=C(N)Nc1ccc(C(=O)Oc2ccc3cc(C(=N)N)ccc3c2)cc1", "note": "[NAFAMOSTAT]", "values": [{"measurement": "Ki", "setting": "Coagulation factor XII [6]", "value": 105, "unit": "nM"}, {"measurement": "Ki", "setting": "[7]", "value": 16, "unit": "nM"}]}, {"smiles": "N=C(N)c1ccc2cc(OC(=O)c3ccc(NC4=NCCN4)cc3)ccc2c1", "note": "[SEPIMOSTAT]", "values": [{"measurement": "Ki", "setting": "Coagulation factor XII [8]", "value": 21, "unit": "nM"}, {"measurement": "Ki", "setting": "Trypsin [9]", "value": 97, "unit": "nM"}]}]}
